Reference: patent US20180028480A1, “METHODS OF REDUCING OR PREVENTING OXIDATIVE MODIFICATION OF MEMBRANE POLYUNSATURATED FATTY ACIDS” (Amarin Pharmaceuticals Ireland Limited, priority 2015, published 2018)

Experiments:
[1] = test system: lipid vesicles enriched with PUFAs and cholesterol; test: Glucose-induced membrane lipid peroxidation (LOOH) in DLPC/cholesterol multilamellar vesicles (Example 4); assay type: biochemical; details: each at 1.0 μM; glucose 200 mg/dL; 96 hours
Method: Vitamin E (α-tocopherol) was also purchased from Sigma-Aldrich and prepared in ethanol at 1.0 mM (ε32 3.06×10^4 M^−1 cm^−1 at 294 nm) just prior to experimental use. […] All test compounds were further diluted in ethanol or aqueous buffer as needed. Glucose was prepared in saline buffer (0.5 mM HEPES, 154 mM NaCl, pH 7.3) at 11.0 mM (200 mg/dL). CHOD-iodide color reagent (stock) was prepared, with slight modification, as described by from El-Saadani et al. (J. […] Prior to experimental use, the CHOD reagent was activated by adding 24 μM ethylenediaminetetraacetic acid (EDTA), 20 μM butylated hydroxytoluene (BHT), and 0.2% Triton X-100. Multilamellar vesicles (MLVs) were prepared as binary mixtures of DLPC (1.0 or 2.5 mg total phospholipid per sample) and cholesterol at a fixed cholesterol-to-phospholipid (C/P) mole ratio of 0.6:1. Component lipids (in chloroform) were transferred to 13×100 mm borosilicate culture tubes and combined with vehicle (ethanol) or an equal volume of fatty acid, vitamin E, or ATM stock solutions, each adjusted to achieve desired treatment concentrations. Samples were shell-dried under nitrogen gas and placed under vacuum for 1 h to remove residual solvent. […] Lipid suspensions were then vortexed for 3 min at ambient temperature to form MLVs. All MLV samples were subjected to time-dependent autoxidation by incubating at 37° C. in an uncovered, shaking water bath. This method allows lipid peroxidation to occur gradually without requiring the use of exogenous initiators. Small aliquots (5-100 μL) of each sample were removed, immediately following MLV preparation (0 hour) and after exposing samples to oxidative conditions for 72 or 96 hour, and combined with 1.0 mL of activated CHOD-iodide color reagent. Aliquot volume was reduced with each successive time point to ensure that spectrophotometric readings were within the optimal adsorption range. Test samples were covered and incubated in darkness at room temperature for at least 4 hr. Sample absorbances were then measured against a CHOD blank at 365 nm using a Beckman DU-640 spectrophotometer. The CHOD colorimetric assay is based on the oxidation of iodide (I^−) by lipid hydroperoxide (LOOH) to form triiodide (I3^−), the quantity of which is directly proportional to the amount of LOOH present in the lipid sample. The molar absorptivity (c) of I3^− is 2.46×10^4 M^−1 cm^−1 at 365 nm. […] The concentration of glucose selected was consistent with previous experimental studies of hyperglycemia under controlled laboratory conditions or observed in well-defined animal models of Type II diabetes following a glucose challenge. […] Values in FIG. 1 are mean±S.D. (N=6). […]

[2] = X-ray diffraction of glucose-treated DLPC/cholesterol membranes under oxidative conditions (Example 8); details: for effect on d-space values: 10.0 μM, 0.6 C/P, glucose-induced lipid peroxidation 72 hours (FIG. 14); for cholesterol domain peaks compared to samples treated with EPA: after 96 hours, C/P 0.6:1, drug-to-phospholipid 1:30
Method: Values are reported as mean±S.D. (N=3).
[…] Membranes were reconstituted from DLPC and cholesterol at a C/P mole ratio of 0.6:1 and treated with the various agents to achieve a total drug-to-phospholipid mole ratio of 1:30.
(§1) Multilamellar vesicles (MLVs) were prepared as binary mixtures of POPC and cholesterol at 50 mol %. MLVs with DLPC and cholesterol at cholesterol-to-phospholipid (C/P) mole ratios of 0.1:1 to 1.1:1 were also prepared in a similar manner. Component lipids (in chloroform) were transferred to borosilicate culture tubes and combined with vehicle (ethanol) or an equal volume of EPA, DHA, fenofibrate, niacin or gemfibrozil stock solution(s) and adjusted to achieve a drug-to-phospholipid (D/P) mole ratio of 1:30. Membranes reconstituted from POPC and cholesterol (at 50 mol % cholesterol) were treated with each of the various agents at 5 mol %. Samples were then shell-dried under nitrogen gas and placed under vacuum for 3 hours to remove residual solvent.
After drying, each sample was resuspended in glucose-free or glucose-containing saline buffer to yield a final phospholipid concentration of 2.5 mg/mL. Lipid suspensions were then vortexed for 3 minutes at ambient temperature to form MLVs.
Membrane samples were oriented for x-ray diffraction analysis as described in Mason, et al., J. Biol. Chem., vol. 281, pages 9337-45 (2006). Briefly, 100 μL aliquots of each MLV preparation (containing 250 μg of phospholipid) were transferred to Lucite sedimentation cells fitted with a removable aluminum foil substrate designed to collect MLVs into a single membrane pellet upon centrifugation. Samples were then loaded into a Sorvall AH-629 swinging bucket ultracentrifuge rotor (DuPont Corp., Wilmington, Del.) and centrifuged at 35,000 g, 5° C., for 1.5 hours.
Following membrane orientation, sample supernatants were aspirated and aluminum foil substrates mounted onto curved glass slides. The membrane samples were then placed in hermetically sealed containers in which temperature and relative humidity were controlled during x-ray diffraction analysis. Data reported in this study were collected at 20° C. and 74% relative humidity.
This technique allows for precise measurement of the unit cell periodicity, or d-space, of the membrane lipid bilayer, which is the distance from the center of one lipid bilayer to the next, including surface hydration.
The presence of cholesterol domains in a given membrane sample results in the production of distinct Bragg (diffraction) peaks that have singular periodicity values of 34 Å and 17 Å. These peaks are typically referred to as first- and second-order cholesterol domain peaks.

[3] = Fluorescence anisotropy, DPH apparent rotational correlation time (Example 8); details: POPC, 0 or 50 mol % cholesterol; increasing omega-3 fatty acid concentrations (FIGS. 16A-16B)
From the text: FIGS. 16A-16B show the dose-dependent effects of EPA and DHA on the ARCT measured for DPH in POPC membranes prepared at either 0 or 50 mol % cholesterol. †p=0.0331 versus cognate DHA treatment (5 mol % omega-3 fatty acids (O3FA), no cholesterol); ^§p=0.0016 versus cognate DHA treatment (5 mol % O3FA, 50 mol % cholesterol); ^‡p=0.0032 versus cognate DHA treatment (10 mol % O3FA, 50 mol % cholesterol) (unpaired, two-tailed Student's t-test). Values are mean±S.D. (N=3).
Fluorescence anisotropy experiments were conducted using large unilamellar vesicles (LUVs) of 100 nm diameter of either POPC (or POPC/cholesterol) containing increasing concentrations of EPA or DHA and 1 mol % DPH fluorescent. Briefly, 640 nmol of total lipid (phospholipid and sterol) and 6.4 nmol of fluorescent probe was mixed well and dried under a stream of nitrogen while being warmed gently at 35° C. […]
In order to ensure that the anisotropy values measured for DPH are not influenced by lifetime-induced artifacts, the apparent (average) rotational correlation times (ARCT) were calculated using Perrin's equation: […]
where r0 is the limiting anisotropy of DPH, r is the steady state anisotropy, and is the mean fluorescence lifetime.

[4] = X-ray diffraction of cholesterol-enriched POPC membranes without oxidative conditions (Example 8); details: 5 mol %; 50 mol % cholesterol; 15° C., 20° C., 30° C. (FIG. 18)
Method: Values are mean±S.D. (N=3).
FIGS. 18A-18C show representative x-ray diffraction patterns collected from cholesterol-enriched model membranes treated with vehicle (control), eicosapentaenoic acid (EPA), or docosahexaenoic acid (DHA) and examined at 15° C., 20° C., and 30° C. Membranes were reconstituted from POPC and cholesterol at 50 mol % cholesterol and treated with each of the various agents at 5 mol % (to match treatments used in corresponding lipid dynamics experiments). Each sample was maintained at 74% relative humidity by exposing the samples to a saturated solution of L-(+) tartaric acid. […] DHA, but not EPA or vehicle, induced the formation of cholesterol domains, which are indicated by a distinct set of diffraction peaks (shaded peaks) having a characteristic d-space value of 34 Å and shown to be stable over a broad range of temperatures.
as §1
Membrane samples were oriented for x-ray diffraction analysis as described in Mason, et al., J. Biol. Chem., vol. 281, pages 9337-45 (2006). Briefly, 100 μL aliquots of each MLV preparation (containing 250 μg of phospholipid) were transferred to Lucite sedimentation cells fitted with a removable aluminum foil substrate designed to collect MLVs into a single membrane pellet upon centrifugation. […]

| SMILES | antioxidant effect (LOOH formation), separate treatments [1] | effect on d-space values [2] | cholesterol domain peaks compared to samples treated with EPA [2] | DPH apparent rotational correlation time / membrane fluidity [3] | membrane cholesterol domain formation [4] |
| --- | --- | --- | --- | --- | --- |
| CC(C)c1c(C(=O)Nc2ccccc2O)c(-c2ccccc2)c(-c2ccc(F)cc2)n1CC[C@@H](O)C[C@@H](O)CC(=O)O [ATM, Atorvastatin ortho- (o-) hydroxy (active) metabolite, reference compound] | separate and potent antioxidant effects |  |  |  |  |
| Cc1ccc(C)c(OCCCC(C)(C)C(=O)O)c1 [gemfibrozil] |  | significant reductions in d-space | disproportionately greater |  |  |
| CC/C=C\C/C=C\C/C=C\C/C=C\C/C=C\C/C=C\CCC(=O)O [DHA, cis-4,7,10,13,16,19-docosahexaenoic acid, reference compound] |  |  |  | reduced DPH apparent rotational correlation time | induced formation of membrane cholesterol domains |
| O=C(O)c1cccnc1 [niacin, nicotinic acid] |  | significant reductions in d-space | disproportionately greater |  |  |
